{"source": "the kinase profiling compilation of Christmann-Franck et al. (2016)", "assay_in_all_cases": "Caliper, Mobility shift assay off-chip", "key": {"[1]": {"biological_target": "STK4 (human) (UniProt Q13043)", "sequence (Q13043 whole entry, looked up)": "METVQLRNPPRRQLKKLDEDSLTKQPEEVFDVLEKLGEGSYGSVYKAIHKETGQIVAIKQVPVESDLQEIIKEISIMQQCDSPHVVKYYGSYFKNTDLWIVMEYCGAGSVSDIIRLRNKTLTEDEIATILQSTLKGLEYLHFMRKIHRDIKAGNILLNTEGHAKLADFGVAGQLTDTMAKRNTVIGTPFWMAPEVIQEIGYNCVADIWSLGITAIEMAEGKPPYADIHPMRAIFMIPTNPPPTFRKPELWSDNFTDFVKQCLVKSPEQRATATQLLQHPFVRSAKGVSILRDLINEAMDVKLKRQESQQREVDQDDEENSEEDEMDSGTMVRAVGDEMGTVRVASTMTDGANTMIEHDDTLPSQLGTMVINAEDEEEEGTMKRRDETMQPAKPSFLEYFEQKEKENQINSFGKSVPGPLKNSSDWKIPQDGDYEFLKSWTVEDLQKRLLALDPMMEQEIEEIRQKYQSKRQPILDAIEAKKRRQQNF"}, "[2]": {"biological_target": "SGK2 (human) (UniProt Q9HBY8)"}, "[3]": {"biological_target": "CSNK2A1 (human) (UniProt P68400)"}, "[4]": {"biological_target": "LTK (human) (UniProt P29376)"}, "[5]": {"biological_target": "SRPK3 (human) (UniProt Q9UPE1)"}, "[6]": {"biological_target": "CDK7 (human) (UniProt P50613)", "sequence (P50613 whole entry, looked up)": "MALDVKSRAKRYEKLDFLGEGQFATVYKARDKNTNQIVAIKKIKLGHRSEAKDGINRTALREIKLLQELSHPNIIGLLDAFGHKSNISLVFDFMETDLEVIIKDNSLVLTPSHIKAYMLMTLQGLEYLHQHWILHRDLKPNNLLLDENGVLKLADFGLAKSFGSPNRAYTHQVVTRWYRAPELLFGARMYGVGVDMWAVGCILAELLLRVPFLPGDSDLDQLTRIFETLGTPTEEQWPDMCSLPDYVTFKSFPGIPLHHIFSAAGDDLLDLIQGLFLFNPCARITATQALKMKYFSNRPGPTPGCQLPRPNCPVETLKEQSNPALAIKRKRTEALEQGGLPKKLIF"}, "[7]": {"biological_target": "ALK EML4 (human) (UniProt Q9HC35+Q9UM73)"}, "[8]": {"biological_target": "AURKC (human) (UniProt Q9UQB9)", "sequence (Q9UQB9 whole entry, looked up)": "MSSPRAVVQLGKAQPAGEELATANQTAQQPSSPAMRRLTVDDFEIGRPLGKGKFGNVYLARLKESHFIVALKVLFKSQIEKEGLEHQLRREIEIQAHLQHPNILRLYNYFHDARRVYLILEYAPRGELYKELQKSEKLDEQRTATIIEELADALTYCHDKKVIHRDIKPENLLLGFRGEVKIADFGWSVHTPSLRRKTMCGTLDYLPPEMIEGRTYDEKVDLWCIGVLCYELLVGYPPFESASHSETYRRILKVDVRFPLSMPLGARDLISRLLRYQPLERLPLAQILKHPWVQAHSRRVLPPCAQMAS"}, "[9]": {"biological_target": "IRAK4 (human) (UniProt Q9NWZ3)"}, "[10]": {"biological_target": "CLK2 (human) (UniProt P49760)"}, "[11]": {"biological_target": "PAK3 (human) (UniProt O75914)", "sequence (O75914 whole entry, looked up)": "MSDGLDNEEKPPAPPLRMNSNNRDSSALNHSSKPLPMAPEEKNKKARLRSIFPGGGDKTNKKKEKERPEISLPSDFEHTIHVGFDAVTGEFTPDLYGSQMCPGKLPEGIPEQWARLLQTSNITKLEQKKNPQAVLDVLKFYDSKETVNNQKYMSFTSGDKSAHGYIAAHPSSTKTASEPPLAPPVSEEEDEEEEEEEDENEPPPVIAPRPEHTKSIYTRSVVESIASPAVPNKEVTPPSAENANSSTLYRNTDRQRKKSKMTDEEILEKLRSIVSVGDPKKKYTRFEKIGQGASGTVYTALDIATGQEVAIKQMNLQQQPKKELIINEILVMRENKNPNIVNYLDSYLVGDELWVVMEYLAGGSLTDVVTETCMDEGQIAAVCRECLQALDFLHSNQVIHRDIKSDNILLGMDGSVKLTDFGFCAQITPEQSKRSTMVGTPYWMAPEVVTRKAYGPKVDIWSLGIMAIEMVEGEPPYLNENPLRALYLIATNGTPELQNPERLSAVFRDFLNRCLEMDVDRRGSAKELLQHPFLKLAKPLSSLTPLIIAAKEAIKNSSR"}, "[12]": {"biological_target": "ROS1 (human) (UniProt P08922)"}, "[13]": {"biological_target": "MAPK11 (human) (UniProt Q15759)"}, "[14]": {"biological_target": "EEF2K (human) (UniProt O00418)"}, "[15]": {"biological_target": "PRKCG (human) (UniProt P05129)"}, "[16]": {"biological_target": "STK38L (human) (UniProt Q9Y2H1)", "sequence (Q9Y2H1 whole entry, looked up)": "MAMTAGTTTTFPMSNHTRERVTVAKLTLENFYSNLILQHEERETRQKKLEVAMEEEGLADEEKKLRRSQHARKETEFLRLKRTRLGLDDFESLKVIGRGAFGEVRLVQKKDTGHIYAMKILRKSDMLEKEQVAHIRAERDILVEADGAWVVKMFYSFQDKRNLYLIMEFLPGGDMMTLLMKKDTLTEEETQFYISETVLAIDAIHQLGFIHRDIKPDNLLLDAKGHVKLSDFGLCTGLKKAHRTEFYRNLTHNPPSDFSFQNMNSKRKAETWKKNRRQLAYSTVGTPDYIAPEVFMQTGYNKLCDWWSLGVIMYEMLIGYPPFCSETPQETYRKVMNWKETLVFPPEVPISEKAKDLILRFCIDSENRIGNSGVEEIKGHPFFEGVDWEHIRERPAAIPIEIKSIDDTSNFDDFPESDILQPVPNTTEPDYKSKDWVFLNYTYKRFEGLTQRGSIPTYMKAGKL"}, "[17]": {"biological_target": "PDGFRA (human) (UniProt P16234)", "details": "compound 0.001 µM"}, "[18]": {"biological_target": "CDC42BPB (human) (UniProt Q9Y5S2)"}, "[19]": {"biological_target": "EPHA4 (human) (UniProt P54764)", "sequence (P54764 whole entry, looked up)": "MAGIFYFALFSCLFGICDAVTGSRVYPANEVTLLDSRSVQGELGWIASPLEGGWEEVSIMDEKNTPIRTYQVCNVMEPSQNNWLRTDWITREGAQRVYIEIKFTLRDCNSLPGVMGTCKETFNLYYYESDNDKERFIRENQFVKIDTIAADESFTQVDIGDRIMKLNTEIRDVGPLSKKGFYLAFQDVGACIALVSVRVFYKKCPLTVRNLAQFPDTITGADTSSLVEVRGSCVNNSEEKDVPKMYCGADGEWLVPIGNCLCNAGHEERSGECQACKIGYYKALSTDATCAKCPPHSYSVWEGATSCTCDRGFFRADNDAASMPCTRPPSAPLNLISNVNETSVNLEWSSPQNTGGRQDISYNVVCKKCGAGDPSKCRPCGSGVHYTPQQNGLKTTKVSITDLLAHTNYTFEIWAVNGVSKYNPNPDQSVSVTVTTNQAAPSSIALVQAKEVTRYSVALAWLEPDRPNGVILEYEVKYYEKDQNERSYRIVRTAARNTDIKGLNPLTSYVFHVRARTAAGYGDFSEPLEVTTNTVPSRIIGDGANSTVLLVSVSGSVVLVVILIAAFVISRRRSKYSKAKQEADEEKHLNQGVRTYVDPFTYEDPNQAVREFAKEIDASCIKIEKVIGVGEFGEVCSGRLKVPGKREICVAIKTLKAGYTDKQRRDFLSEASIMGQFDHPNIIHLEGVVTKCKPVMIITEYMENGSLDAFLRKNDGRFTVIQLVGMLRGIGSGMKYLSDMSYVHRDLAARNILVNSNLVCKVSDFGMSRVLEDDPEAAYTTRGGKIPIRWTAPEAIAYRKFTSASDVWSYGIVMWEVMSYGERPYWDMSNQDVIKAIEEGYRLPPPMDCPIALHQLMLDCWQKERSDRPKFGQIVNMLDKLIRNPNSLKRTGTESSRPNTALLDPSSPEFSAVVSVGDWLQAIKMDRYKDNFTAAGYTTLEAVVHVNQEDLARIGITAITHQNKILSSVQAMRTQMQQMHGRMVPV"}, "[20]": {"biological_target": "CDC7 (human) (UniProt O00311)", "sequence (O00311 whole entry, looked up)": "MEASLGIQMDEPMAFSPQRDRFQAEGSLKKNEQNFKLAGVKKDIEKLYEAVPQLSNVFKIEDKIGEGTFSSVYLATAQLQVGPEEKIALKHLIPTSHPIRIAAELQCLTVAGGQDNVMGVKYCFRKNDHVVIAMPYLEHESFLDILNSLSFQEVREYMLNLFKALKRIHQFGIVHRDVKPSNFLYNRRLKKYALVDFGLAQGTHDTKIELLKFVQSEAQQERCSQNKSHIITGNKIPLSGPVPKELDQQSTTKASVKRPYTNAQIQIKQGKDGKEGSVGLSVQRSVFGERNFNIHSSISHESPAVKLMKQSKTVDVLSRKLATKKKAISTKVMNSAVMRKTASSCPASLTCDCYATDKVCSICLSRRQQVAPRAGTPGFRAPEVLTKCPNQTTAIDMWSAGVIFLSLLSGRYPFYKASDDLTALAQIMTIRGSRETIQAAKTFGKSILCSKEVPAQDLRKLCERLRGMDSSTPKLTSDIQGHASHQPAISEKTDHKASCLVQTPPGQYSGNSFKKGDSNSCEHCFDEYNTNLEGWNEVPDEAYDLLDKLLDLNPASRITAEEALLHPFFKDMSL"}, "[21]": {"biological_target": "NEK1 (human) (UniProt Q96PY6)"}, "[22]": {"biological_target": "CAMK1D (human) (UniProt Q8IU85)", "sequence (Q8IU85 whole entry, looked up)": "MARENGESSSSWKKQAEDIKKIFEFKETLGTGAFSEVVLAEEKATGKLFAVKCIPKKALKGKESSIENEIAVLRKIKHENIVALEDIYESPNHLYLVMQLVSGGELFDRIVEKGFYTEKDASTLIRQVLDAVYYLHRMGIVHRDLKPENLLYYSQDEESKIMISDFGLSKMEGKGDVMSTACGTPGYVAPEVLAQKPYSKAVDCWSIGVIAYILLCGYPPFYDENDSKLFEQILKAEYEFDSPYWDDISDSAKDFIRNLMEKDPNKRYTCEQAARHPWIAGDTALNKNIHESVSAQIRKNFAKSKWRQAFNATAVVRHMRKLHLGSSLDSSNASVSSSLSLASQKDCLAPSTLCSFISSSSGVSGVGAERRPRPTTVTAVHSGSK"}, "[23]": {"biological_target": "DDR2 (human) (UniProt Q16832)"}, "[24]": {"biological_target": "MARK4 (human) (UniProt Q96L34)"}, "[25]": {"biological_target": "SRC (human) (UniProt P12931)", "sequence (P12931 whole entry, looked up)": "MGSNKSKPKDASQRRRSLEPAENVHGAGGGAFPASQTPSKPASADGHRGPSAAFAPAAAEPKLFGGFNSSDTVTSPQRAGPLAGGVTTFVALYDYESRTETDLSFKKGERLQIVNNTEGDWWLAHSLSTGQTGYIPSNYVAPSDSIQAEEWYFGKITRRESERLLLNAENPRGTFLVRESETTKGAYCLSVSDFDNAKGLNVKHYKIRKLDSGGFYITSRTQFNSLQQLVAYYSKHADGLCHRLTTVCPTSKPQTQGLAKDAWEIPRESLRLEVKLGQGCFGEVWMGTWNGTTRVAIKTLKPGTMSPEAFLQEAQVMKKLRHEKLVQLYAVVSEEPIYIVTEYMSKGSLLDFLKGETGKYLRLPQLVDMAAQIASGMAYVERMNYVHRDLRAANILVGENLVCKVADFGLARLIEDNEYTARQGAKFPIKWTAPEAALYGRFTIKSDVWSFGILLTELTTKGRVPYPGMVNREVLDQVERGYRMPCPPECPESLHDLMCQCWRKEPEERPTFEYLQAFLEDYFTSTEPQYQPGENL"}, "[26]": {"biological_target": "HIPK1 (human) (UniProt Q86Z02)"}, "[27]": {"biological_target": "TNK1 (human) (UniProt Q13470)"}, "[28]": {"biological_target": "ABL2 (human) (UniProt P42684)"}, "[29]": {"biological_target": "PRKCZ (human) (UniProt Q05513)"}, "[30]": {"biological_target": "FRK (human) (UniProt P42685)"}, "[31]": {"biological_target": "PHKG2 (human) (UniProt P15735)"}, "[32]": {"biological_target": "CDK3 (human) (UniProt Q00526)", "sequence (Q00526 whole entry, looked up)": "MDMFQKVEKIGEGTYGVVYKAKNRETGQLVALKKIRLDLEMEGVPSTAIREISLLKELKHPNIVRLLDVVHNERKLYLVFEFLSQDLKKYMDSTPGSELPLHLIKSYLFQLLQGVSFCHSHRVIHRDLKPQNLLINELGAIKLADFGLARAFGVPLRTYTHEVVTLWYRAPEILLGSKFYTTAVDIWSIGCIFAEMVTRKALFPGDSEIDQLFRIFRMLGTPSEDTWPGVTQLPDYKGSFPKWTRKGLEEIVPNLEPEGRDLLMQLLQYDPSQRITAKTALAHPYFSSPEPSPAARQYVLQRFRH"}, "[33]": {"biological_target": "MELK (human) (UniProt Q14680)"}}}
{"smiles": "CNC(=O)c1ccccc1Sc1ccc2c(/C=C/c3ccccn3)n[nH]c2c1", "values": [{"measurement": "inhibition", "setting": "[1]; compound 0.001 µM", "value": -5.9, "unit": "%"}, {"measurement": "inhibition", "setting": "[1]; compound 0.02 µM", "value": 2, "unit": "%"}, {"measurement": "inhibition", "setting": "[2]; compound 0.001 µM", "value": -1.7, "unit": "%"}, {"measurement": "inhibition", "setting": "[2]; compound 0.02 µM", "value": 4.4, "unit": "%"}, {"measurement": "inhibition", "setting": "[3]; compound 0.001 µM", "value": -3.2, "unit": "%"}, {"measurement": "inhibition", "setting": "[3]; compound 0.02 µM", "value": -4.4, "unit": "%"}, {"measurement": "inhibition", "setting": "[4]; compound 0.001 µM", "value": 2.1, "unit": "%"}, {"measurement": "inhibition", "setting": "[4]; compound 0.02 µM", "value": 0.9, "unit": "%"}, {"measurement": "inhibition", "setting": "[5]; compound 0.001 µM", "value": -3.3, "unit": "%"}, {"measurement": "inhibition", "setting": "[5]; compound 0.02 µM", "value": -0.9, "unit": "%"}, {"measurement": "inhibition", "setting": "[6]; compound 0.001 µM", "value": -7.5, "unit": "%"}, {"measurement": "inhibition", "setting": "[6]; compound 0.02 µM", "value": -3.4, "unit": "%"}, {"measurement": "inhibition", "setting": "[7]; compound 0.001 µM", "value": -2, "unit": "%"}, {"measurement": "inhibition", "setting": "[7]; compound 0.02 µM", "value": -3.9, "unit": "%"}, {"measurement": "inhibition", "setting": "[8]; compound 0.001 µM", "value": -2.1, "unit": "%"}, {"measurement": "inhibition", "setting": "[8]; compound 0.02 µM", "value": 42.3, "unit": "%"}, {"measurement": "inhibition", "setting": "[9]; compound 0.001 µM", "value": -5.7, "unit": "%"}, {"measurement": "inhibition", "setting": "[9]; compound 0.02 µM", "value": -6.7, "unit": "%"}, {"measurement": "inhibition", "setting": "[10]; compound 0.001 µM", "value": -3.8, "unit": "%"}, {"measurement": "inhibition", "setting": "[10]; compound 0.02 µM", "value": 5.8, "unit": "%"}, {"measurement": "inhibition", "setting": "[11]; compound 0.001 µM", "value": -1.3, "unit": "%"}, {"measurement": "inhibition", "setting": "[11]; compound 0.02 µM", "value": 7.8, "unit": "%"}, {"measurement": "inhibition", "setting": "[12]; compound 0.001 µM", "value": -0.6, "unit": "%"}, {"measurement": "inhibition", "setting": "[12]; compound 0.02 µM", "value": 10.8, "unit": "%"}, {"measurement": "inhibition", "setting": "[13]; compound 0.001 µM", "value": -2.8, "unit": "%"}, {"measurement": "inhibition", "setting": "[13]; compound 0.02 µM", "value": -3.8, "unit": "%"}, {"measurement": "inhibition", "setting": "[14]; compound 0.001 µM", "value": -4.8, "unit": "%"}, {"measurement": "inhibition", "setting": "[14]; compound 0.02 µM", "value": 2.3, "unit": "%"}, {"measurement": "inhibition", "setting": "[15]; compound 0.001 µM", "value": 1.2, "unit": "%"}, {"measurement": "inhibition", "setting": "[15]; compound 0.02 µM", "value": 17.3, "unit": "%"}, {"measurement": "inhibition", "setting": "[16]; compound 0.001 µM", "value": 8.1, "unit": "%"}, {"measurement": "inhibition", "setting": "[16]; compound 0.02 µM", "value": -0.1, "unit": "%"}, {"measurement": "inhibition", "setting": "[17]", "value": 33.1, "unit": "%"}, {"measurement": "inhibition", "setting": "[18]; compound 0.001 µM", "value": -8.6, "unit": "%"}, {"measurement": "inhibition", "setting": "[18]; compound 0.02 µM", "value": 2.9, "unit": "%"}, {"measurement": "inhibition", "setting": "[19]; compound 0.001 µM", "value": -6.8, "unit": "%"}, {"measurement": "inhibition", "setting": "[19]; compound 0.02 µM", "value": -4.3, "unit": "%"}, {"measurement": "inhibition", "setting": "[20]; compound 0.001 µM", "value": -4.9, "unit": "%"}, {"measurement": "inhibition", "setting": "[20]; compound 0.02 µM", "value": -5.8, "unit": "%"}, {"measurement": "inhibition", "setting": "[21]; compound 0.001 µM", "value": -7.5, "unit": "%"}, {"measurement": "inhibition", "setting": "[21]; compound 0.02 µM", "value": -8.1, "unit": "%"}, {"measurement": "inhibition", "setting": "[22]; compound 0.001 µM", "value": -0.4, "unit": "%"}, {"measurement": "inhibition", "setting": "[22]; compound 0.02 µM", "value": -0.8, "unit": "%"}, {"measurement": "inhibition", "setting": "[23]; compound 0.001 µM", "value": -1.6, "unit": "%"}, {"measurement": "inhibition", "setting": "[23]; compound 0.02 µM", "value": 2.2, "unit": "%"}, {"measurement": "inhibition", "setting": "[24]; compound 0.001 µM", "value": -14.2, "unit": "%"}, {"measurement": "inhibition", "setting": "[24]; compound 0.02 µM", "value": -4.7, "unit": "%"}, {"measurement": "inhibition", "setting": "[25]; compound 0.001 µM", "value": 1.3, "unit": "%"}, {"measurement": "inhibition", "setting": "[25]; compound 0.02 µM", "value": -0.2, "unit": "%"}, {"measurement": "inhibition", "setting": "[26]; compound 0.001 µM", "value": -4.9, "unit": "%"}, {"measurement": "inhibition", "setting": "[26]; compound 0.02 µM", "value": -0.2, "unit": "%"}, {"measurement": "inhibition", "setting": "[27]; compound 0.001 µM", "value": 26.9, "unit": "%"}, {"measurement": "inhibition", "setting": "[27]; compound 0.02 µM", "value": 24.8, "unit": "%"}, {"measurement": "inhibition", "setting": "[28]; compound 0.001 µM", "value": 5.8, "unit": "%"}, {"measurement": "inhibition", "setting": "[28]; compound 0.02 µM", "value": 58.4, "unit": "%"}, {"measurement": "inhibition", "setting": "[29]; compound 0.001 µM", "value": 12, "unit": "%"}, {"measurement": "inhibition", "setting": "[29]; compound 0.02 µM", "value": -4.6, "unit": "%"}, {"measurement": "inhibition", "setting": "[30]; compound 0.001 µM", "value": 6.1, "unit": "%"}, {"measurement": "inhibition", "setting": "[30]; compound 0.02 µM", "value": 4.2, "unit": "%"}, {"measurement": "inhibition", "setting": "[31]; compound 0.001 µM", "value": -6.2, "unit": "%"}, {"measurement": "inhibition", "setting": "[31]; compound 0.02 µM", "value": -3.3, "unit": "%"}, {"measurement": "inhibition", "setting": "[32]; compound 0.001 µM", "value": -4.2, "unit": "%"}, {"measurement": "inhibition", "setting": "[32]; compound 0.02 µM", "value": -4.8, "unit": "%"}, {"measurement": "inhibition", "setting": "[33]; compound 0.001 µM", "value": 1.9, "unit": "%"}, {"measurement": "inhibition", "setting": "[33]; compound 0.02 µM", "value": 0.9, "unit": "%"}]}
